# Assay results: PubChem BioAssay (NCI)
#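 Values below derive from 48-hour exposures of cells grown in 96-well plates, with endpoints linearly interpolated between the two concentrations bracketing the appropriate inhibition level. The concentration for full growth arrest is given as TGI.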
# Key:
# Test in all cases: NCI-60 cell line screen, 48 h
# 786-0 renal = test system: 786-0 renal
# A498 renal = test system: A498 renal
# A549 NSCLC = test system: A549 NSCLC
# ACHN renal = test system: ACHN renal
# BT-549 breast = test system: BT-549 breast
# CAKI-1 renal = test system: CAKI-1 renal
# CCRF-CEM leukemia = test system: CCRF-CEM leukemia
# COLO 205 colon = test system: COLO 205 colon
# DU-145 prostate = test system: DU-145 prostate
# EKVX NSCLC = test system: EKVX NSCLC
# HCC-2998 colon = test system: HCC-2998 colon
# HCT-116 colon = test system: HCT-116 colon
# HCT-15 colon = test system: HCT-15 colon
# HL-60(TB) leukemia = test system: HL-60(TB) leukemia
# HOP-62 NSCLC = test system: HOP-62 NSCLC
# HOP-92 NSCLC = test system: HOP-92 NSCLC
# HS 578T breast = test system: HS 578T breast
# HT29 colon = test system: HT29 colon
# IGROV1 ovarian = test system: IGROV1 ovarian
# K-562 leukemia = test system: K-562 leukemia
# KM12 colon = test system: KM12 colon
# LOX IMVI melanoma = test system: LOX IMVI melanoma
# M14 melanoma = test system: M14 melanoma
# MALME-3M melanoma = test system: MALME-3M melanoma
# MCF7 breast = test system: MCF7 breast
# MDA-MB-231 breast = test system: MDA-MB-231 breast
# MDA-MB-435 = test system: MDA-MB-435
# MDA-N = test system: MDA-N
# MOLT-4 leukemia = test system: MOLT-4 leukemia
# NCI-H226 lung = test system: NCI-H226 lung
# NCI-H23 lung = test system: NCI-H23 lung
# NCI-H460 lung = test system: NCI-H460 lung
# NCI-H522 lung = test system: NCI-H522 lung
# NCI/ADR-RES ovarian = test system: NCI/ADR-RES ovarian
# OVCAR-3 ovarian = test system: OVCAR-3 ovarian
# OVCAR-4 ovarian = test system: OVCAR-4 ovarian
# OVCAR-5 ovarian = test system: OVCAR-5 ovarian
# OVCAR-8 ovarian = test system: OVCAR-8 ovarian
# PC-3 prostate = test system: PC-3 prostate
# RPMI-8226 leukemia = test system: RPMI-8226 leukemia
# RXF 393 renal = test system: RXF 393 renal
# SF-268 CNS = test system: SF-268 CNS
# SF-295 CNS = test system: SF-295 CNS
# SF-539 CNS = test system: SF-539 CNS
# SK-MEL-2 melanoma = test system: SK-MEL-2 melanoma
# SK-MEL-28 melanoma = test system: SK-MEL-28 melanoma
# SK-MEL-5 melanoma = test system: SK-MEL-5 melanoma
# SK-OV-3 ovarian = test system: SK-OV-3 ovarian
# SN12C renal = test system: SN12C renal
# SNB-19 CNS = test system: SNB-19 CNS
# SNB-75 CNS = test system: SNB-75 CNS
# SR leukemia = test system: SR leukemia
# SW-620 colon = test system: SW-620 colon
# T-47D breast = test system: T-47D breast
# TK-10 renal = test system: TK-10 renal
# U251 CNS = test system: U251 CNS
# UACC-257 melanoma = test system: UACC-257 melanoma
# UACC-62 melanoma = test system: UACC-62 melanoma
# UO-31 renal = test system: UO-31 renal
smiles,measurement,setting,value
COc1ccc(CC2c3cc(Oc4cc(CC5c6cc(OC)c(OC)cc6CCN5C)ccc4O)c(OC)cc3CCN2C)cc1 (configuration not stated),TGI,786-0 renal,9.33 µM
same,TGI,A498 renal,14.8 µM
same,TGI,A549 NSCLC,13.4 µM
same,TGI,ACHN renal,13.5 µM
same,TGI,BT-549 breast,13.4 µM
same,TGI,CAKI-1 renal,9.99 µM
same,TGI,CCRF-CEM leukemia,1.57 µM
same,TGI,COLO 205 colon,14.7 µM
same,TGI,DU-145 prostate,6.34 µM
same,TGI,EKVX NSCLC,15.9 µM
same,TGI,HCC-2998 colon,2.64 µM
same,TGI,HCT-116 colon,4.6 µM
same,TGI,HCT-15 colon,4.6 µM
same,TGI,HL-60(TB) leukemia,15.5 µM
same,TGI,HOP-62 NSCLC,14.9 µM
same,TGI,HOP-92 NSCLC,14.6 µM
same,TGI,HS 578T breast,19.3 µM
same,TGI,HT29 colon,8.15 µM
same,TGI,IGROV1 ovarian,16.2 µM
same,TGI,K-562 leukemia,5.28 µM
same,TGI,KM12 colon,5.33 µM
same,TGI,LOX IMVI melanoma,10.7 µM
same,TGI,M14 melanoma,12.1 µM
same,TGI,MALME-3M melanoma,17.6 µM
same,TGI,MCF7 breast,12.2 µM
same,TGI,MDA-MB-231 breast,14.8 µM
same,TGI,MDA-MB-435,9.88 µM
same,TGI,MDA-N,13.7 µM
same,TGI,MOLT-4 leukemia,12.9 µM
same,TGI,NCI-H226 lung,18.6 µM
same,TGI,NCI-H23 lung,15.4 µM
same,TGI,NCI-H460 lung,14.1 µM
same,TGI,NCI-H522 lung,14.1 µM
same,TGI,NCI/ADR-RES ovarian,14.4 µM
same,TGI,OVCAR-3 ovarian,15.1 µM
same,TGI,OVCAR-4 ovarian,8.77 µM
same,TGI,OVCAR-5 ovarian,16.6 µM
same,TGI,OVCAR-8 ovarian,13.4 µM
same,TGI,PC-3 prostate,11.4 µM
same,TGI,RPMI-8226 leukemia,10.1 µM
same,TGI,RXF 393 renal,12 µM
same,TGI,SF-268 CNS,17 µM
same,TGI,SF-295 CNS,15.4 µM
same,TGI,SF-539 CNS,16.8 µM
same,TGI,SK-MEL-2 melanoma,15.6 µM
same,TGI,SK-MEL-28 melanoma,15.1 µM
same,TGI,SK-MEL-5 melanoma,14.4 µM
same,TGI,SK-OV-3 ovarian,16.5 µM
same,TGI,SN12C renal,14.8 µM
same,TGI,SNB-19 CNS,12.5 µM
same,TGI,SNB-75 CNS,15.3 µM
same,TGI,SR leukemia,4.6 µM
same,TGI,SW-620 colon,7.29 µM
same,TGI,T-47D breast,12.8 µM
same,TGI,TK-10 renal,11 µM
same,TGI,U251 CNS,11.9 µM
same,TGI,UACC-257 melanoma,15 µM
same,TGI,UACC-62 melanoma,15.6 µM
same,TGI,UO-31 renal,11.2 µM
O=[N+]([O-])c1ccc(Cl)c(C=NC23CC4CC(CC(C4)C2)C3)c1,TGI,786-0 renal,> 10 µM
same,TGI,A498 renal,> 10 µM
same,TGI,A549 NSCLC,> 10 µM
same,TGI,ACHN renal,> 10 µM
same,TGI,BT-549 breast,> 10 µM
same,TGI,CAKI-1 renal,> 10 µM
same,TGI,CCRF-CEM leukemia,> 10 µM
same,TGI,COLO 205 colon,> 10 µM
same,TGI,DU-145 prostate,> 10 µM
same,TGI,EKVX NSCLC,> 10 µM
same,TGI,HCC-2998 colon,> 10 µM
same,TGI,HCT-116 colon,> 10 µM
same,TGI,HCT-15 colon,> 10 µM
same,TGI,HL-60(TB) leukemia,4.46 µM
same,TGI,HOP-62 NSCLC,> 10 µM
same,TGI,HOP-92 NSCLC,> 10 µM
same,TGI,HS 578T breast,> 10 µM
same,TGI,HT29 colon,> 10 µM
same,TGI,IGROV1 ovarian,> 10 µM
same,TGI,K-562 leukemia,> 10 µM
same,TGI,KM12 colon,> 10 µM
same,TGI,LOX IMVI melanoma,> 10 µM
same,TGI,M14 melanoma,> 10 µM
same,TGI,MALME-3M melanoma,> 10 µM
same,TGI,MCF7 breast,> 10 µM
same,TGI,MDA-MB-231 breast,> 10 µM
same,TGI,MDA-MB-435,> 10 µM
same,TGI,MDA-N,> 10 µM
same,TGI,MOLT-4 leukemia,> 10 µM
same,TGI,NCI-H226 lung,> 10 µM
same,TGI,NCI-H23 lung,> 10 µM
same,TGI,NCI-H460 lung,> 10 µM
same,TGI,NCI-H522 lung,> 10 µM
same,TGI,NCI/ADR-RES ovarian,> 10 µM
same,TGI,OVCAR-3 ovarian,> 10 µM
same,TGI,OVCAR-4 ovarian,> 10 µM
same,TGI,OVCAR-5 ovarian,> 10 µM
same,TGI,OVCAR-8 ovarian,> 7.79 µM
same,TGI,PC-3 prostate,> 10 µM
same,TGI,RPMI-8226 leukemia,> 10 µM
same,TGI,RXF 393 renal,> 10 µM
same,TGI,SF-268 CNS,> 10 µM
same,TGI,SF-295 CNS,> 10 µM
same,TGI,SF-539 CNS,9.9 µM
same,TGI,SK-MEL-2 melanoma,> 10 µM
same,TGI,SK-MEL-28 melanoma,> 10 µM
same,TGI,SK-MEL-5 melanoma,> 10 µM
same,TGI,SK-OV-3 ovarian,> 10 µM
same,TGI,SN12C renal,> 10 µM
same,TGI,SNB-19 CNS,> 10 µM
same,TGI,SNB-75 CNS,> 10 µM
same,TGI,SR leukemia,> 10 µM
same,TGI,SW-620 colon,> 10 µM
same,TGI,T-47D breast,> 10 µM
same,TGI,TK-10 renal,> 10 µM
same,TGI,U251 CNS,> 10 µM
same,TGI,UACC-257 melanoma,> 10 µM
same,TGI,UACC-62 melanoma,> 10 µM
same,TGI,UO-31 renal,> 10 µM
CCN(CC)c1c(N(CC)CC)c(=O)c1=O,TGI,786-0 renal,16.2 µM
same,TGI,A498 renal,58.1 µM
same,TGI,A549 NSCLC,43.7 µM
same,TGI,ACHN renal,21.1 µM
same,TGI,BT-549 breast,35.8 µM
same,TGI,CAKI-1 renal,9.62 µM
same,TGI,CCRF-CEM leukemia,18.9 µM
same,TGI,COLO 205 colon,8.24 µM
same,TGI,DU-145 prostate,23.3 µM
same,TGI,EKVX NSCLC,28.6 µM
same,TGI,HCC-2998 colon,39.9 µM
same,TGI,HCT-116 colon,20.8 µM
same,TGI,HCT-15 colon,17 µM
same,TGI,HL-60(TB) leukemia,7.58 µM
same,TGI,HOP-62 NSCLC,> 77.3 µM
same,TGI,HOP-92 NSCLC,11.4 µM
same,TGI,HS 578T breast,59.9 µM
same,TGI,HT29 colon,5.96 µM
same,TGI,IGROV1 ovarian,8.01 µM
same,TGI,K-562 leukemia,> 100 µM
same,TGI,KM12 colon,48.4 µM
same,TGI,LOX IMVI melanoma,25.8 µM
same,TGI,M14 melanoma,36.9 µM
same,TGI,MALME-3M melanoma,13.2 µM
same,TGI,MCF7 breast,29.5 µM
same,TGI,MDA-MB-231 breast,15.8 µM
same,TGI,MDA-MB-435,60.9 µM
same,TGI,MDA-N,32.1 µM
same,TGI,MOLT-4 leukemia,16.4 µM
same,TGI,NCI-H226 lung,30.9 µM
same,TGI,NCI-H23 lung,26.7 µM
same,TGI,NCI-H460 lung,> 78.2 µM
same,TGI,NCI-H522 lung,4.86 µM
same,TGI,NCI/ADR-RES ovarian,61.2 µM
same,TGI,OVCAR-3 ovarian,25.1 µM
same,TGI,OVCAR-4 ovarian,46.3 µM
same,TGI,OVCAR-5 ovarian,37.2 µM
same,TGI,OVCAR-8 ovarian,27.6 µM
same,TGI,PC-3 prostate,46.4 µM
same,TGI,RPMI-8226 leukemia,4.91 µM
same,TGI,RXF 393 renal,25.2 µM
same,TGI,SF-268 CNS,> 77 µM
same,TGI,SF-295 CNS,> 100 µM
same,TGI,SF-539 CNS,19 µM
same,TGI,SK-MEL-2 melanoma,66.9 µM
same,TGI,SK-MEL-28 melanoma,41.9 µM
same,TGI,SK-MEL-5 melanoma,35.2 µM
same,TGI,SK-OV-3 ovarian,> 100 µM
same,TGI,SN12C renal,24 µM
same,TGI,SNB-19 CNS,> 89.6 µM
same,TGI,SNB-75 CNS,62.6 µM
same,TGI,SR leukemia,> 100 µM
same,TGI,SW-620 colon,20.1 µM
same,TGI,T-47D breast,10.4 µM
same,TGI,TK-10 renal,8.7 µM
same,TGI,U251 CNS,55.6 µM
same,TGI,UACC-257 melanoma,20.5 µM
same,TGI,UACC-62 melanoma,45.7 µM
same,TGI,UO-31 renal,12 µM
